For this series, the system named is CCRIS mutagenicity, Ames/micronucleus/aberration tests. The series is described as follows: CCRIS mutagenicity studies.
[1] abbreviates: Test System: AMES SALMONELLA TYPHIMURIUM, Strain/Indicator: TA98, Metabolic Activation: NONE, Method: PREINCUBATION
[2] abbreviates: Test System: AMES SALMONELLA TYPHIMURIUM, Strain/Indicator: TA100, Metabolic Activation: NONE, Method: PREINCUBATION
[3] abbreviates: Test System: AMES SALMONELLA TYPHIMURIUM, Strain/Indicator: TA1535, Metabolic Activation: NONE, Method: PREINCUBATION
[4] abbreviates: Test System: AMES SALMONELLA TYPHIMURIUM, Strain/Indicator: TA1537, Metabolic Activation: NONE, Method: PREINCUBATION
Where [5] appears, read: Test System: AMES SALMONELLA TYPHIMURIUM, Strain/Indicator: TA98, Metabolic Activation: NONE, Method: STANDARD PLATE.
[6] abbreviates: Test System: AMES SALMONELLA TYPHIMURIUM, Strain/Indicator: TA98, Metabolic Activation: RAT, LIVER, S-9, AROCLOR 1254, Method: STANDARD PLATE.

The structures appear in SMILES notation. Active and inactive are the calls of the source. No rule for the calls is given here.

For `CCN1CCOCC1`, the mutagenic call is “inactive; negative” (Test System: AMES SALMONELLA TYPHIMURIUM, Strain/Indicator: TA98, Metabolic Activation: HAMSTER, LIVER, S-9, AROCLOR 1254 (10%), Method: PREINCUBATION); “inactive; negative” under setting [1]; “inactive; negative” (Test System: AMES SALMONELLA TYPHIMURIUM, Strain/Indicator: TA98, Metabolic Activation: RAT, LIVER, S-9, AROCLOR 1254 (10%), Method: PREINCUBATION); “inactive; negative” (Test System: AMES SALMONELLA TYPHIMURIUM, Strain/Indicator: TA100, Metabolic Activation: HAMSTER, LIVER, S-9, AROCLOR 1254 (10%), Method: PREINCUBATION); “inactive; negative” under setting [2]; “inactive; negative” (Test System: AMES SALMONELLA TYPHIMURIUM, Strain/Indicator: TA100, Metabolic Activation: RAT, LIVER, S-9, AROCLOR 1254 (10%), Method: PREINCUBATION). For the same compound, the mutagenic call is, setting by setting: (Test System: AMES SALMONELLA TYPHIMURIUM, Strain/Indicator: TA1535, Metabolic Activation: HAMSTER, LIVER, S-9, AROCLOR 1254 (5 OR 30%), Method: PREINCUBATION) “active; positive”; (Test System: AMES SALMONELLA TYPHIMURIUM, Strain/Indicator: TA1535, Metabolic Activation: HAMSTER, LIVER, S-9, AROCLOR 1254 (10%), Method: PREINCUBATION) “active; positive”; under setting [3], “inactive; negative”; (Test System: AMES SALMONELLA TYPHIMURIUM, Strain/Indicator: TA1535, Metabolic Activation: RAT, LIVER, S-9, AROCLOR 1254 (5 OR 30%), Method: PREINCUBATION) “active; positive”; (Test System: AMES SALMONELLA TYPHIMURIUM, Strain/Indicator: TA1535, Metabolic Activation: RAT, LIVER, S-9, AROCLOR 1254 (10%), Method: PREINCUBATION) “active; positive”; (Test System: AMES SALMONELLA TYPHIMURIUM, Strain/Indicator: TA1537, Metabolic Activation: HAMSTER, LIVER, S-9, AROCLOR 1254 (10%), Method: PREINCUBATION) “inactive; negative”. In addition, the mutagenic call under setting [4] was “inactive; negative” and the mutagenic call (Test System: AMES SALMONELLA TYPHIMURIUM, Strain/Indicator: TA1537, Metabolic Activation: RAT, LIVER, S-9, AROCLOR 1254 (10%), Method: PREINCUBATION) is “inactive; negative”.

With `COc1cc(O)c2c(=O)c(O)c(-c3ccc(O)c(O)c3)oc2c1`, the mutagenic call (Test System: AMES SALMONELLA TYPHIMURIUM, Strain/Indicator: TA97, Metabolic Activation: NONE, Method: STANDARD PLATE) was “inactive; negative”; the mutagenic call (Test System: AMES SALMONELLA TYPHIMURIUM, Strain/Indicator: TA97, Metabolic Activation: RAT, LIVER, S-9, AROCLOR 1254, Method: STANDARD PLATE) is “active; positive”; the mutagenic call under setting [5] is “inactive; negative”; the mutagenic call under setting [6] was “active; positive”; the mutagenic call (Test System: AMES SALMONELLA TYPHIMURIUM, Strain/Indicator: TA100, Metabolic Activation: NONE, Method: STANDARD PLATE) was “inactive; negative”; the mutagenic call (Test System: AMES SALMONELLA TYPHIMURIUM, Strain/Indicator: TA100, Metabolic Activation: RAT, LIVER, S-9, AROCLOR 1254, Method: STANDARD PLATE) is “inactive; negative”. For the same compound, the mutagenic call by setting is: (Test System: AMES SALMONELLA TYPHIMURIUM, Strain/Indicator: TA102, Metabolic Activation: NONE, Method: STANDARD PLATE) “inactive; negative”; (Test System: AMES SALMONELLA TYPHIMURIUM, Strain/Indicator: TA102, Metabolic Activation: RAT, LIVER, S-9, AROCLOR 1254, Method: STANDARD PLATE) “inactive; negative”; (Test System: AMES SALMONELLA TYPHIMURIUM, Strain/Indicator: TA1535, Metabolic Activation: NONE, Method: STANDARD PLATE) “inactive; negative”; (Test System: AMES SALMONELLA TYPHIMURIUM, Strain/Indicator: TA1535, Metabolic Activation: RAT, LIVER, S-9, AROCLOR 1254, Method: STANDARD PLATE) “inactive; negative”; (Test System: AMES SALMONELLA TYPHIMURIUM, Strain/Indicator: TA1538, Metabolic Activation: NONE, Method: STANDARD PLATE) “inactive; negative”; (Test System: AMES SALMONELLA TYPHIMURIUM, Strain/Indicator: TA1538, Metabolic Activation: RAT, LIVER, S-9, AROCLOR 1254, Method: STANDARD PLATE) “inactive; negative”.

For `CC(=O)Nc1ccc2ccc3cccc4ccc1c2c34`, the mutagenic call runs as follows: (Test System: AMES SALMONELLA TYPHIMURIUM, Strain/Indicator: TA98(1,8-DNP6), Metabolic Activation: NONE, Method: STANDARD PLATE) “inactive; negative”; (Test System: AMES SALMONELLA TYPHIMURIUM, Strain/Indicator: TA98(1,8-DNP6), Metabolic Activation: RAT, LIVER, S-9, AROCLOR 1254, Method: STANDARD PLATE) “inactive; negative”; (Test System: AMES SALMONELLA TYPHIMURIUM, Strain/Indicator: TA98(NR), Metabolic Activation: NONE, Method: STANDARD PLATE) “inactive; negative”; (Test System: AMES SALMONELLA TYPHIMURIUM, Strain/Indicator: TA98(NR), Metabolic Activation: RAT, LIVER, S-9, AROCLOR 1254, Method: STANDARD PLATE) “active; positive”; under setting [5], “inactive; negative”; under setting [6], “active; positive”.

Take `CC(C)=O`: the mutagenic call by setting is: (End Point: IN VITRO CHROMOSOMAL ABERRATIONS, Test System: CHO-LB CELLS, Metabolic Activation: NONE) “inactive; negative”; (End Point: IN VITRO CHROMOSOMAL ABERRATIONS, Test System: CHO-LB CELLS, Metabolic Activation: RAT, LIVER, S-9, AROCLOR 1254) “inactive; negative”; (Test System: AMES SALMONELLA TYPHIMURIUM, Strain/Indicator: TA97, Metabolic Activation: HAMSTER, LIVER, S-9, AROCLOR 1254 (10 OR 30%), Method: PREINCUBATION) “inactive; negative”; (Test System: AMES SALMONELLA TYPHIMURIUM, Strain/Indicator: TA97, Metabolic Activation: NONE, Method: PREINCUBATION) “inactive; negative”; (Test System: AMES SALMONELLA TYPHIMURIUM, Strain/Indicator: TA97, Metabolic Activation: RAT, LIVER, S-9, AROCLOR 1254 (10 OR 30%), Method: PREINCUBATION) “inactive; negative”; (Test System: AMES SALMONELLA TYPHIMURIUM, Strain/Indicator: TA97, Metabolic Activation: RAT, LIVER, S-9, AROCLOR 1254, Method: PREINCUBATION) “inactive; negative”. For the same compound, the mutagenic call runs as follows: (Test System: AMES SALMONELLA TYPHIMURIUM, Strain/Indicator: TA98, Metabolic Activation: HAMSTER, LIVER, S-9, AROCLOR 1254 (10 OR 30%), Method: PREINCUBATION) “inactive; negative”; under setting [1], “inactive; negative”; (Test System: AMES SALMONELLA TYPHIMURIUM, Strain/Indicator: TA98, Metabolic Activation: RAT, LIVER, S-9, AROCLOR 1254 (10 OR 30%), Method: PREINCUBATION) “inactive; negative”; (Test System: AMES SALMONELLA TYPHIMURIUM, Strain/Indicator: TA100, Metabolic Activation: HAMSTER, LIVER, S-9, AROCLOR 1254 (10 OR 30%), Method: PREINCUBATION) “inactive; negative”; under setting [2], “inactive; negative”; (Test System: AMES SALMONELLA TYPHIMURIUM, Strain/Indicator: TA100, Metabolic Activation: RAT, LIVER, S-9, AROCLOR 1254 (10 OR 30%), Method: PREINCUBATION) “inactive; negative”. In addition, the mutagenic call runs as follows: (Test System: AMES SALMONELLA TYPHIMURIUM, Strain/Indicator: TA102, Metabolic Activation: NONE, Method: PREINCUBATION) “inactive; negative”; (Test System: AMES SALMONELLA TYPHIMURIUM, Strain/Indicator: TA102, Metabolic Activation: RAT, LIVER, S-9, AROCLOR 1254, Method: PREINCUBATION) “inactive; negative”; (Test System: AMES SALMONELLA TYPHIMURIUM, Strain/Indicator: TA1535, Metabolic Activation: HAMSTER, LIVER, S-9, AROCLOR 1254 (10 OR 30%), Method: PREINCUBATION) “inactive; negative”; under setting [3], “inactive; negative”; (Test System: AMES SALMONELLA TYPHIMURIUM, Strain/Indicator: TA1535, Metabolic Activation: RAT, LIVER, S-9, AROCLOR 1254 (10 OR 30%), Method: PREINCUBATION) “inactive; negative”; (Test System: AMES SALMONELLA TYPHIMURIUM, Strain/Indicator: TA1537, Metabolic Activation: HAMSTER, LIVER, S-9, AROCLOR 1254 (30%), Method: PREINCUBATION) “inactive; negative”. The mutagenic call is “inactive; negative” under setting [4] and “inactive; negative” (Test System: AMES SALMONELLA TYPHIMURIUM, Strain/Indicator: TA1537, Metabolic Activation: RAT, LIVER, S-9, AROCLOR 1254 (30%), Method: PREINCUBATION).
